Columns and labels:
[1] = Gelation test by vial inversion: gelation index and minimum gelation concentration (MGC); assay type: physicochemical; set-up: key to Gelation Index: I = Insoluble; PS = Partially Soluble
Protocol: (§1) Preparation and Characterization Molecular Gels. Gels were prepared by adding the solid glassy glycosides (10.0-50.0 mg gelator) to the desired solvent (1 mL). The mixture was then heated to disperse the gelator at five degrees below the boiling point of organic solvents, and at 125° C. for oils to produce a homogeneous sol. The sol was kept at this temperature for 10 minutes under constant agitation to fully disperse the gelator. The sol was then cooled to room temperature to allow for self-assembly and after a length of time (between 2-24 hours), the samples were inverted to confirm gel formation. The efficacy of gel formation was examined by determining the minimum gelation concentration (MGC) and gel-to-sol transition temperature (Tgel). Gel samples were diluted with solvent until after setting and vial inversion a gel, partial gel, or sol was formed. The gel transition temperature was determined by submersing a gel sample in an oil bath, and increasing the temperature until the gel flowed like a liquid, indicating the disassembly of the gelator structure. MGC was determined beginning from 5 wt. % samples (50 mg gelator in 1 mL solvent) or below the concentration of precipitation for gelators and diluting the samples until a sol is formed.

[2] = Gel-to-sol transition temperature (Tgel) in oil bath; assay type: physicochemical
Protocol: as §1, with “structure.” for “structure. MGC was determined beginning from 5 wt. % samples (50 mg gelator in 1 mL solvent) or below the concentration of precipitation for gelators and diluting the samples until a sol is formed.”

Minimum Gelation Concentration ([1]; Coconut Oil (edible oil)) | Minimum Gelation Concentration ([1]; Grape seed Oil (edible oil)) | Minimum Gelation Concentration ([1]; Hazelnut Oil (edible oil)) | Minimum Gelation Concentration ([1]; Jojoba Oil (edible oil)) | Minimum Gelation Concentration ([1]; Mineral Oil (organic solvent)) | Minimum Gelation Concentration ([1]; Red Palm Oil (edible oil)) | Minimum Gelation Concentration ([1]; Toluene (organic solvent)) | Gelation Index ([1]; Water (aqueous solvent)) | Minimum Gelation Concentration ([1]; Hexanes (organic solvent)) | Tgel ([2]; 5 wt. % gel in Coconut Oil) | Structure (SMILES) | other results
0.54 wt. % | 0.66 wt. % | 0.56 wt. % | 0.48 wt. % | 0.80 wt. % | 0.72 wt. % | 0.73 wt. % | – | – | – | CCCCCCCCC=CCCCCCCCC(=O)OCC1OC(Oc2ccc(CCC(C)=O)cc2)C(O)C(O)C1O (stereo not drawn) [RKGO, raspberry ketone glucoside oleate] | MGC ([1]; RKGO gels compared to saturated analogues): greater than 0.5 wt. %
– | – | – | – | – | – | – | PS | – | – | CC(=O)CCc1ccc(O[C@@H]2O[C@H](CO)[C@@H](O)[C@H](O)[C@H]2O)cc1 [Raspberry ketone glucoside, reference compound] | Gelation Index ([1]; Coconut Oil (edible oil)): I; Gelation Index ([1]; Grape seed Oil (edible oil)): I; Gelation Index ([1]; Hazelnut Oil (edible oil)): I; Gelation Index ([1]; Hexanes (organic solvent)): I; Gelation Index ([1]; Jojoba Oil (edible oil)): I; Gelation Index ([1]; Mineral Oil (organic solvent)): I; Gelation Index ([1]; Red Palm Oil (edible oil)): I; Gelation Index ([1]; Toluene (organic solvent)): PS
0.28 wt. % | 0.30 wt. % | 0.24 wt. % | 0.26 wt. % | 0.24 wt. % | 0.36 wt. % | 0.36 wt. % | I | 0.24 wt. % | 111-112 °C | CCCCCCCCCCCCCCCCCC(=O)OCC1OC(Oc2ccc(CCC(C)=O)cc2)C(O)C(O)C1O (stereo not drawn) [RKG18, raspberry ketone glucoside stearate] | –
0.27 wt. % | 0.25 wt. % | 0.26 wt. % | 0.25 wt. % | 1.4 wt. % | 0.34 wt. % | 0.5 wt. % | I | 2.1 wt. % | 106-107 °C | CCCCCCCC(=O)OC[C@H]1O[C@@H](Oc2ccc(CCC(C)=O)cc2)[C@H](O)[C@@H](O)[C@@H]1O [RKG8, ((2R,3S,4S,5R,6S)-3,4,5-trihydroxy-6-(4-(3-oxobutyl)phenoxy)tetrahydro-2H-pyran-2-yl) methyl octanoate] | Tgel ([2]; 5 wt. % gel in Olive Oil): 108-110 °C; Tgel ([2]; 5 wt. % gel in Toluene): 48-50 °C

— patent US10258072B2, “Environmentally friendly gelator using medium chain triglycerides and method of use” (Research Foundation of the City University of New York, priority 2014, dated 2019)
